Test results reported in patent US20220016092A1, “METHODS FOR TREATING SYMPTOMS AND DISORDERS ASSOCIATED WITH LYSOSOMAL STORAGE DISEASES” (GENZYME CORPORATION, priority 2019, published 2022).

Assays:
[1] = test system: GM3 expression in C32 human melanoma cells; experiment: GM3 fluorescent-linked immunosorbent assay (FLISA), C32 cells; format: cell-based; conditions: 48 hours
Description: (§1) Inhibition of glucosylceramide synthase activity can be measured with one or more assays. A first assay is a microsomal assay that directly measures the conversion of ceramide to glucosylceramide by HPLC. Microsomes are a source of glucosylceramide synthase activity in the microsomal assay. A second assay is a cell based, phenotypic assay that monitors cell surface expression of the downstream lipid GM3 by antibody mediated immunofluorescence. Specific protocols are provided below.
(§2) This is a phenotypic assay that measures GM3 expression in B16 mouse melanoma or C32 human melanoma cells following treatment with test compounds. Cell surface GM3 expression is determined by antibody mediated fluorescence.
(§3) Compounds are diluted in media and plated in 384 well plates in DMSO. B16 and C32 cells are assayed at densities of 20,000 cells/ml and 62,500 cells/ml, respectively, per well. Each titration curve contains 10 points that are assayed in duplicate on each test run. The plates are incubated for 48 hours at 37° C., 5% CO2, and are then washed once with TBS. Anti-GM3 antibody is added to each well and the plates are then incubated for an additional one hour at room temperature. Plates are subsequently washed twice and incubated for an additional hour with the labeled secondary antibody. Following the final incubation, the plates are washed twice and the fluorescence at λex=D640/20 nm and λem=657 nm is detected on a fluorescent reader.
(§4) The results of the microsomal assays are expressed as “GCS IC50”, which represents the concentration of the compound causing 50% inhibition of glucosylceramide synthase activity. The results of the cell-based assays are expressed as “GM3 B16 IC50” or “GM3 C32 IC50” for the B16 assay and the C32 assay, respectively. These values represent the concentration of the compound causing 50% inhibition of GM3 expression on the cell surface.

[2] = test system: GM3 expression in B16 mouse melanoma cells; experiment: GM3 fluorescent-linked immunosorbent assay (FLISA), B16 cells; format: cell-based; conditions: 48 hours
Description: as §1, §2, §3, §4

[3] = test system: GL-3, lyso-GL-3, GL-1 and GM3; conditions: Fabry patients of the historical phase 3 trial (Eng et al. 2001), matched; after 156 weeks; cited from earlier work

| Molecule | IC50 [1] [nM] | IC50 [2] [nM] | Plasma GL-3 levels [3] [µg/mL] |
| --- | --- | --- | --- |
| CC(C)(NC(=O)OC1CN2CCC1CC2)c1ccc(-c2ccc(OCC#N)cc2)cc1 (stereo not drawn) [Compound 23] | 0.8 | 47.7 | – |
| COc1ccc(-c2ccc(C3(NC(=O)OC4CN5CCC4CC5)CC3)cc2)cc1 (stereo not drawn) [Compound 9, 1-azabicyclo[2.2.2]oct-3-yl[1-(4′-methoxybiphenyl-4-yl)cyclopropyl]carbamate] | 0.4 | 16.8 | – |
| O=C(NC1(c2ccc(-c3ccc(F)cc3)cc2)CC1)O[C@@H]1CN2CCC1CC2 [Compound 7, (S)-quinuclidin-3-yl 1-(4′-fluorobiphenyl-4-yl)cyclopropylcarbamate] | 0.4 | 8.1 | – |
| CC(C)(NC(=O)OC1CN2CCC1CC2)c1ccc(-c2ccc(OCCCC#N)cc2)cc1 (stereo not drawn) [Compound 22, Quinuclidin-3-yl(2-(4′-(3-cyanopropoxy)-[1,1′-biphenyl]-4-yl)propan-2-yl)carbamate] | 3.2 | 86.5 | – |
| COCCOc1cccc(-c2ccc(C(C)(C)NC(=O)O[C@@H]3CN4CCC3CC4)cc2)c1 [Compound 14, (S)-quinuclidin-3-yl(2-(3′-(2-methoxyethoxy)-[1,1′-biphenyl]-4-yl)propan-2-yl)carbamate] | 5.3 | 110 | – |
| CC(C)(NC(=O)OC1CN2CCC1CC2)c1ccc(-c2ccc(CO)cc2)cc1 (stereo not drawn) [Compound 17, Quinuclidin-3-yl(2-(4′-(hydroxymethyl)-[1,1′-biphenyl]-4-yl)propan-2-yl)carbamate] | 21.6 | 879 | – |
| COCCOc1ccc(-c2ccc(C(C)(C)NC(=O)OC3CN4CCC3CC4)cc2)cc1 (stereo not drawn) [Compound 13, Quinuclidin-3-yl(2-(4′-(2-methoxyethoxy)-[1,1′-biphenyl]-4-yl)propan-2-yl)carbamate] | 0.7 | 38.6 | – |
| COCCOc1ccc(-c2ccc(C(C)(C)NC(=O)OC3CN4CCC3CC4)nc2)cc1 (stereo not drawn) [Compound 21, Quinuclidin-3-yl 2-(5-(4-(2-methoxyethoxy)phenyl)pyridin-2-yl)propan-2-ylcarbamate] | 11.1 | 266 | – |
| CC(C)(NC(=O)OC1CN2CCC1CC2)c1ccc(-c2ccc(CCO)cc2)cc1 (stereo not drawn) [Compound 18, Quinuclidin-3-yl(2-(4′-(2-hydroxyethyl)-[1,1′-biphenyl]-4-yl)propan-2-yl)carbamate] | 22.3 | 656 | – |
| COCCOc1ccc(-c2cccc(C(C)(C)NC(=O)OC3CN4CCC3CC4)c2)cc1 (stereo not drawn) [Compound 15, Quinuclidin-3-yl(2-(4′-(2-methoxyethoxy)-[1,1′-biphenyl]-3-yl)propan-2-yl)carbamate] | 4.9 | 29.5 | – |
| CC(C)(NC(=O)OC1CN2CCC1CC2)c1cccc(-c2ccccc2)c1 (stereo not drawn) [Compound 4, 1-azabicyclo[2.2.2]oct-3-yl[2-(biphenyl-3-yl)propan-2-yl]carbamate] | 0.8 | 11.6 | – |
| CC(C)(NC(=O)O[C@@H]1CN2CCC1CC2)c1cc(-c2ccc(F)cc2)ns1 [Compound 11, (S)-quinuclidin-3-yl 2-(3-(4-fluorophenyl)isothiazol-5-yl)propan-2-ylcarbamate] | 1.8 | 81.9 | – |
| CC(C)(NC(=O)O[C@@H]1CN2CCC1CC2)c1ccc(-c2ccccc2)cc1 [Compound 5, (S)-quinuclidin-3-yl 2-(biphenyl-4-yl)propan-2-ylcarbamate] | 0.3 | 19.3 | – |
| CC(C)(NC(=O)OC1CN2CCC1CC2)c1cccc(-c2ccc(F)cc2)c1 (stereo not drawn) [Compound 1, 1-azabicyclo[2.2.2]oct-3-yl[2-(4′-fluorobiphenyl-3-yl)propan-2-yl]carbamate] | 2.1 | 15.6 | – |
| COCCOc1ccc(-c2ccc(C(C)(C)NC(=O)O[C@@H]3CN4CCC3CC4)cc2)cc1 [Compound 3, (S)-quinuclidin-3-yl(2-(4′-(2-methoxyethoxy)-[1,1′-biphenyl]-4-yl)propan-2-yl)carbamate] | 1.31 | 43.7 | – |
| CC(C)(NC(=O)OC1CN2CCC1CC2)c1csc(-c2ccc(F)cc2)c1 (stereo not drawn) [Compound 10, Quinuclidin-3-yl 2-(5-(4-fluorophenyl)thiophen-3-yl)propan-2-ylcarbamate] | 2.2 | 21.3 | – |
| O=C(NC1(c2ccc(-c3ccc(F)cc3F)cc2)CC1)O[C@@H]1CN2CCC1CC2 [Compound 8, (S)-1-azabicyclo[2.2.2]oct-3-yl[1-(2′,4′-difluorobiphenyl-4-yl)cyclopropyl]carbamate] | 0.4 | 7.5 | – |
| O=C(NC1(c2ccc(-c3ccccc3)cc2)CC1)OC1CN2CCC1CC2 (stereo not drawn) [Compound 6, Quinuclidin-3-yl 1-(biphenyl-4-yl)cyclopropylcarbamate] | 0.6 | 18.1 | – |
| CC(C)(NC(=O)O[C@@H]1CN2CCC1CC2)c1nc(-c2ccc(F)cc2)cs1 [Compound 12, (S)-quinuclidin-3-yl 2-(4-(4-fluorophenyl)thiazol-2-yl)propan-2-ylcarbamate] | 3.7 | 87.8 | – |
| COCCCOc1ccc(-c2nc(C(C)(C)NC(=O)OC3CN4CCC3CC4)cs2)cc1 (stereo not drawn) [Compound 19, Quinuclidin-3-yl(2-(2-(4-(3-methoxypropoxy)phenyl)thiazol-4-yl)propan-2-yl)carbamate] | 42.6 | 197 | – |
| COCCOc1ccc(-c2nc(C(C)(C)NC(=O)OC3CN4CCC3CC4)cs2)cc1 (stereo not drawn) [Compound 20, Quinuclidin-3-yl(2-(2-(4-(2-methoxyethoxy)phenyl)thiazol-4-yl)propan-2-yl)carbamate] | 19.8 | 106 | – |
| COCCCOc1ccc(-c2ccc(C(C)(C)NC(=O)OC3CN4CCC3CC4)cc2)cc1 (stereo not drawn) [Compound 16, Quinuclidin-3-yl(2-(4′-(3-methoxypropoxy)-[1,1′-biphenyl]-4-yl)propan-2-yl)carbamate] | 1.6 | 66.6 | – |
| agalsidase beta: historical control arm: patients treated with agalsidase beta (Fabrazyme) in a previously completed placebo-controlled phase 3 trial (protein, UniProt P06280 32-429, looked up, agalsidase beta, historical control arm: patients treated with agalsidase beta (Fabrazyme) in a previously completed placebo-controlled phase 3 trial) Alpha-galactosidase A: LDNGLARTPTMGWLHWERFMCNLDCQEEPDSCISEKLFMEMAELMVSEGWKDAGYEYLCIDDCWMAPQRDSEGRLQADPQRFPHGIRQLANYVHSKGLKLGIYADVGNKTCAGFPGSFGYYDIDAQTFADWGVDLLKFDGCYCDSLENLADGYKHMSLALNRTGRSIVYSCEWPLYMWPFQKPNYTEIRQYCNHWRNFADIDDSWKSIKSILDWTSFNQERIVDVAGPGGWNDPDMLVIGNFGLSWNQQVTQMALWAIMAAPLFMSNDLRHISPQAKALLQDKDVIAINQDPLGKQGYQLRQGDNFEVWERPLSGLAWAVAMINRQEIGGPRSYTIAVASLGKGVACNPACFITQLLPVKRKLGFYEWTSRLRSHINPTGTVLLQLENTMQMSLKDLL | – | – | 4.44 |
